According to US20260355217A1, “HPK1 INHIBITOR, PREPARATION METHOD THEREFOR, AND USE THEREOF” (Beijing Earthwise Technology Co., Ltd., priority 2022, published 2026):

Each compound was assayed against T1, pSLP76 (Phospho-SLP-76 (Ser376)), Jurkat E6-1 cells (Homo sapiens, UniProt Q92918) (assay: Phospho-SLP-76 (Ser376) HTRF Assay in Jurkat E6-1 cells). Settings: compound 4 hours, then anti-CD3 20 minutes.
T1 construct: read-out phospho-SLP-76 (Ser376) HTRF
Format: cell-based
Experimental: Assay Example 3 Phospho-SLP-76 (Ser376) HTRF Assay
A compound was dissolved in DMSO to 10 mM, and then diluted three-fold with DMSO to 10 dosages in a 96-well plate. Then, 3 μL of the diluted compound sample was transferred to a 96-well plate with 97 μL of cell culture medium, and the plate was shaken for 5 minutes. According to the experimental design diagram, 7.5 μL of the diluted compound sample was transferred to a cell plate. Final concentrations of the compound in this assay were 10000.00, 3333.33, 1111.11, 370.37, 123.46, 41.15, 13.72, 4.57, 1.52 and 0.51 nM.
In this assay, the density of Jurkat E6-1 cells was maintained between 3*10^5 to 3*10^6 cells/mL. The cell culture was replaced with fresh culture medium every 2 to 3 days (depending on the cell density). 30 μL of Jurkat E6-1 (300,000 cells) was added to a 96-well plate and incubated in a 37 °C incubator for 1 hour. Then, according to the experimental design diagram, compounds (6×, 7.5 μL) were added to treat the cells for 4 hours, respectively. After 4 hours, purified anti-human anti-CD3 antibodies (6×, 7.5 μL) were added to treat the cells for 20 minutes. After 20 minutes, 15 μL of cell lysis buffer (4×) was added, and the cells were lysed at 25 °C with shaking (250 rpm) for 1 hour. Then, according to the experimental design diagram, 16 μL of cell lysate was transferred to a 384-well plate using a pipette. After the transfer, 4 μL of antibody detection mixture was added. After being placed at room temperature overnight, the plate was read by EnVision multi-function microplate reader to read the FRET signal (the ratio of HTRF 665/615 was calculated from the readings at 665 nm and 615 nm).
The ratio of the signal at 665 nm to the signal at 615 nm was converted to the percentage of inhibition. Inhibition %=(maximum value−sample value)/(maximum value−minimum value)×100. The minimum value refers to the signal value of a well without anti-CD3 antibody stimulation during the treatment of cells, and the maximum value refers to the signal value of a well with anti-CD3 antibody stimulation but without the compound during the treatment of cells. IC50 values were calculated by XLFit (version 5.3.1.3) in excel. Equation: Y=Bottom+(Top−Bottom)/(1+(IC50/X)^HillSlope).

T1 sequence (Q92918 whole entry): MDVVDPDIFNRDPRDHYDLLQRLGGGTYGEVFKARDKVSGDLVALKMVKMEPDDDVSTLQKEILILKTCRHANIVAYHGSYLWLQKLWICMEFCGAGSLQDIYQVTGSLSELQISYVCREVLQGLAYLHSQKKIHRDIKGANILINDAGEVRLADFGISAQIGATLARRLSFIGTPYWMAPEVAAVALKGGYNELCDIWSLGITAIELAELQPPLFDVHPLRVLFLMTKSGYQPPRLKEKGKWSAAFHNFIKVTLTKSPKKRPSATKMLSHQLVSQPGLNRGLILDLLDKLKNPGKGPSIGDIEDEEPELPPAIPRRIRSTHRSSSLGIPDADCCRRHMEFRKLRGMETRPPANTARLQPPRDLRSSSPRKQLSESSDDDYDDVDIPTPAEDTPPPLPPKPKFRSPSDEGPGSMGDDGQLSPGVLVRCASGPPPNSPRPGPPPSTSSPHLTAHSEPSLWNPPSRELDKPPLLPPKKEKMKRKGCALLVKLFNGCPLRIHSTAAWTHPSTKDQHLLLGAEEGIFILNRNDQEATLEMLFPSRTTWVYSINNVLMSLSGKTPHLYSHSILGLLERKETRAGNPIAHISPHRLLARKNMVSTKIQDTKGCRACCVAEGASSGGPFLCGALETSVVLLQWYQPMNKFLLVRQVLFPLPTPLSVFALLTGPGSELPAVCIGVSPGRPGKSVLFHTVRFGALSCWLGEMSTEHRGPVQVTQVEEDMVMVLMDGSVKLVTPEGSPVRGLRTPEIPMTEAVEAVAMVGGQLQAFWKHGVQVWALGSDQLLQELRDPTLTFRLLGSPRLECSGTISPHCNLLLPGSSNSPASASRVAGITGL

| IC50 | Compound |
| --- | --- |
| 0.064 µM | COc1cccn2c(-c3cc4c(c5c(=O)[nH]ccc35)Nc3ccc(N5CCOC(C(C)(C)O)C5)cc3C4(C)C)cnc12 (stereo not shown) [Example 2] |
| 0.0575 µM | COc1cccn2c(-c3cc4c(c5c(=O)[nH]ccc35)Nc3ccc(N5CCOCC5)cc3C4(C)C)cnc12 [Example 3] |
| 0.0381 µM | CC1(C)c2cc(N3CCOCC3)ccc2Nc2c1cc(-c1cnn3cccnc13)c1cc[nH]c(=O)c21 [Example 4] |
| 0.164 µM | Cc1ccn2c(-c3cc4c(c5c(=O)[nH]ccc35)Nc3ccc(N5CCOC(C(C)(C)O)C5)cc3C4(C)C)cnc2c1F (stereo not shown) [Example 6] |
| 0.487 µM | Cc1ccc2c(-c3cc4c(c5c(=O)[nH]ccc35)Nc3ccc(N5CCOC(C(C)(C)O)C5)cc3C4(C)C)cnn2c1 (stereo not shown) [Example 7] |
| 0.103 µM | COc1cccc2c(-c3cc4c(c5c(=O)[nH]ccc35)Nc3ccc(N5CCOCC5)cc3C4(C)C)cnn12 [Example 8] |
| 0.0578 µM | Cc1ccn2c(-c3cc4c(c5c3CNC5=O)Nc3ccc(N5CCOC(C(C)(C)O)C5)cc3C4(C)C)cnc2c1F (stereo not shown) [Example 9] |
| 0.0733 µM | Cc1ccn2c(-c3cc4c(c5c3CNC5=O)Nc3ccc(N5CCOCC5)cc3C4(C)C)cnc2c1F [Example 11] |
| 0.0259 µM | CC1(C)c2cc(N3CCOCC3)ccc2Nc2c1cc(-c1cnc3cccnn13)c1c2C(=O)NC1 [Example 12] |
| 0.197 µM | COc1cccn2c(-c3cc4c(c5c3CNC5=O)Nc3cnc(N5CCOCC5)cc3C4(C)C)cnc12 [Example 14] |
| 0.0722 µM | COc1cccc2c(-c3nc4c(c5c3CCNC5=O)Nc3ccc(N5CCOCC5)cc3C4(C)C)cnn12 [Example 15] |
| 0.0316 µM | CC1(C)c2cc(N3CCOCC3)ccc2Nc2c1cc(-c1cnn3cccnc13)c1c2C(=O)NC1 [Example 16] |
| 0.0569 µM | CC1(C)c2cc(N3CCOCC3)ccc2Nc2c1cc(-c1cnn3c(C#N)cccc13)c1c2C(=O)NC1 [Example 17] |
| 0.066 µM | COc1cccc2c(-c3cc4c(c5c3CNC5=O)Nc3ccc(N5CCOCC5)cc3C4(C)C)cnn12 [Example 18] |
| 0.0836 µM | COc1cccn2c(-c3cc4c(c5c3CNC5=O)Nc3ccc(N5CCOCC5)nc3C4(C)C)cnc12 [Example 20] |
| 0.037 µM | COc1cccc2c(-c3cc4c(c5c3CNC5=O)Nc3ncc(N5CCOCC5)cc3C4(C)C)cnn12 [Example 21] |
| 0.0588 µM | COc1ccnn2c(-c3cc4c(c5c3CNC5=O)Nc3ccc(N5CCOCC5)cc3C4(C)C)cnc12 [Example 31] |
| 0.0135 µM | Cn1ccn2c(-c3cc4c(c5c3CNC5=O)Nc3ccc(N5CCOCC5)cc3C4(C)C)cnc2c1=O [Example 41] |

| Compound | IC50 |
| --- | --- |
| CC1(C)c2cc(N3CCOCC3)ccc2Nc2c1cc(-c1cnc3c(Cl)cccn13)c1cc[nH]c(=O)c21 [Example 1] | 0.121 µM |
| COc1cccn2c(-c3cc4c(c5c3CNC5=O)Nc3ccc(N5CCOCC5)cc3C4(C)C)cnc12 [Example 10] | 0.0427 µM |

Each compound was assayed on human Pan T cells (IL-2 release) (assay: Human Pan T Cell IL-2 ELISA). Settings: Anti-CD3/Anti-CD28, 48 hours, IL-2 ELISA.
Format: cell-based
Experimental: Assay Example 4 Human Pan T Cell IL-2 ELISA
A compound was dissolved in DMSO to 10 mM, and then diluted three-fold with DMSO to 9 dosages in a 96-well plate. Then, 10 μL of the diluted compound sample was transferred to a 96-well plate with 90 μL of cell culture medium, and the plate was shaken for 5 minutes. Then, 5 μL of the diluted compound sample was transferred to a 96-well plate with 120 μL of cell culture medium, and the plate was shaken for 5 minutes. According to the experimental design diagram, 50 μL of the diluted compound sample was transferred to a cell plate. Final concentrations of the compound in this assay were 10000.00, 5000, 2500, 1250, 625, 312.5, 156.25, 78.125 and 39.063 nM.
The assay was conducted in a 96-well plate. On the first day of the assay, Anti-CD3 was added to the 96-well plate and incubated in a 4 °C refrigerator overnight. On the second day of the assay, human Pan T cells were recovered, centrifuged and counted. The cell density was adjusted to 1*10^6 cells/ml. Then, 100 μL of cells were added to the 96-well plate washed with PBS and added with Anti-CD3; according to the experimental design diagram, 50 μL of diluted Anti-CD28 and 50 μL of the diluted compound were added to each well, centrifuged, and the cell plate was placed and incubated in an incubator for 48 hours; after 48 hours, the plate was centrifuged and the supernatant was collected for IL-2 ELISA.
The signal value of light absorption was converted into a multiple. Multiple=sample value/the average value of control wells. The average value of control wells refers to the value measured in wells with DMSO added. EC50 values were calculated by XLFit (version 5.3.1.3) in Excel. Equation: Y=Bottom+(Top−Bottom)/(1+(EC50/X)^HillSlope).

| Compound | EC50 |
| --- | --- |
| COC1CCCn2c(-c3cc4c(c5c3CNC5=O)Nc3ccc(N5CCOCC5)nc3C4(C)C)cnc21 (single isomer, unassigned) [Example 25] | 0.0334 µM |
| COc1cccc2c(-c3nc4c(c5c3CCNC5=O)Nc3ccc(N5CCOCC5)cc3C4(C)C)cnn12 [Example 15] | 0.00395 µM |

The next lines start with the values.

| EC50 | Compound |
| --- | --- |
| 0.0183 µM | Cc1ccn2c(-c3cc4c(c5c3CNC5=O)Nc3ccc(N5CCOC(C(C)(C)O)C5)cc3C4(C)C)cnc2c1 (single isomer, unassigned) [Example 106] |
| 0.0101 µM | COC1CCCn2c(-c3cc4c(c5c3CNC5=O)Nc3ccc(N5CCOC(C(C)(C)O)C5)cc3C4(C)C)cnc21 (single isomer, unassigned) [Example 132] |

Same assay, conditions: Anti-CD3/Anti-CD28 stimulation, 48 hours, IL-2 ELISA of supernatant

| Compound | EC50 |
| --- | --- |
| CC[C@@]1(C)c2cc(N3CCOCC3)ccc2Nc2c1cc(-c1cnc3n1CCC[C@@H]3OC)c1c2C(=O)NC1 (single isomer, unassigned) [Example 167] | 0.038 µM |
| CC[C@@]1(C)c2cc(N3CCOCC3)ccc2Nc2c1cc(-c1cnc3n1CCC[C@@H]3OC)c1c2C(=O)NC1 (single isomer, unassigned) [Example 168] | 0.017 µM |
| COC1CCCn2c(-c3cc4c(c5c3CNC5=O)Nc3ccc(N5CCOCC5C)cc3C4(C)C)cnc21 (single isomer, unassigned) [Example 180] | 0.027 µM |
| COC1CCCn2c(-c3cc4c(c5c3CNC5=O)Nc3ccc(N5CCOCC5C)cc3C4(C)C)cnc21 (single isomer, unassigned) [Example 181] | 0.026 µM |

Same assay, conditions: Homo sapiens, T-cell, 48 h, Anti-CD3/Anti-CD28, IL-2 ELISA

| Compound | EC50 |
| --- | --- |
| CC1(C)c2cc(N3CCOCC3)ccc2Nc2c1cc(-c1cnc3c(Cl)cccn13)c1cc[nH]c(=O)c21 [Example 1] | 0.00367 µM |
| COc1cccn2c(-c3cc4c(c5c3CNC5=O)Nc3ccc(N5CCOCC5)cc3C4(C)C)cnc12 [Example 10] | 0.00488 µM |
| Cc1ccnn2c(-c3cc4c(c5c3CNC5=O)Nc3ccc(N5CCOC(C(C)(C)O)C5)cc3C4(C)C)cnc12 (stereo not shown) [Example 33] | 0.00495 µM |
| COc1ccnc2c(-c3cc4c(c5c3CNC5=O)Nc3ccc(N5CCOCC5)cc3C4(C)C)cnn12 [Example 66] | 0.00783 µM |

Further lines, results first:

| EC50 | Compound |
| --- | --- |
| 0.00664 µM | Cc1ccn2c(-c3cc4c(c5c3CNC5=O)Nc3ccc(N5CCO[C@H](C(C)(C)O)C5)cc3C4(C)C)cnc2c1F (single isomer, unassigned) [Example 89] |
| 0.00596 µM | CO[C@@H]1CCCn2c(-c3cc4c(c5c3CNC5=O)Nc3ccc(N5CCOCC5)cc3C4(C)C)cnc21 (single isomer, unassigned) [Example 91] |
| 0.00484 µM | CC1(C)c2cc(N3CCO[C@H](C(C)(C)O)C3)ccc2Nc2c1cc(-c1cnc3cc(F)ccn13)c1c2C(=O)NC1 (single isomer, unassigned) [Example 94] |
| 0.00591 µM | Cc1ccc2c(-c3cc4c(c5c3CNC5=O)Nc3ccc(N5CCO[C@H](C(C)(C)O)C5)cc3C4(C)C)cnn2c1 (single isomer, unassigned) [Example 96] |
| 0.0268 µM | CCO[C@@H]1CCCn2c(-c3cc4c(c5c3CNC5=O)Nc3ccc(N5CCOCC5)cc3C4(C)C)cnc21 (single isomer, unassigned) [Example 137] |
| 0.0119 µM | Cc1ccn2c(-c3cc4c(c5c3CNC5=O)Nc3ccc(N5CCO[C@H](C(C)(C)O)C5)cc3C4(C)C)cnc2c1 (stereo in doubt) [Example 107] |

Same assay, conditions: Homo sapiens, T-cell, 48 h, Anti-CD3/Anti-CD28 stimulation, IL-2 ELISA of supernatant

| EC50 | Compound |
| --- | --- |
| 0.015 µM | CO[C@H]1CCn2c(-c3cc4c(c5c3CNC5=O)Nc3ccc(N5CCO[C@@H](C(C)(C)O)C5)cc3C4(C)C)cnc2C1 (single isomer, unassigned) [Example 166] |
| 0.031 µM | CO[C@@H]1CCn2c(-c3cc4c(c5c3CNC5=O)Nc3ccc(N5CCO[C@@H](C(C)(C)O)C5)cc3C4(C)C)cnc2C1 (single isomer, unassigned) [Example 176] |
| 0.098 µM | CC1(C)c2cc(N3CCOCC3)ccc2Nc2c1cc(-c1cnc3n1CCC[C@@H]3OC1COC1)c1c2C(=O)NC1 (single isomer, unassigned) [Example 221] |
| 0.015 µM | CO[C@H]1CCCn2c(-c3cc4c(c5c3CNC5=O)Nc3ccc(N5CC6CCC5CO6)cc3C4(C)C)cnc21 (stereo in doubt) [Example 204] |
| 0.027 µM | CO[C@H]1CCCn2c(-c3cc4c(c5c3CNC5=O)Nc3ccc(N5CC6CCC(C5)O6)cc3C4(C)C)cnc21 [Example 196] |
